From US20260234140A1, “PYRIDOPYRIMIDINE DERIVATIVE AND USE THEREOF” (SUNSHINE LAKE PHARMA CO., LTD., priority 2023, published 2026) come the findings set out here.

In data set [1] the test system is PD1/PD-L1 pathway. Nature of the data set: PD1/PD-L1 Blockade Bioassay, inhibition of the PD1/PD-L1 pathway at the cellular level (luciferase reporter, PD-1 Jukat T cells co-cultured with PD-L1 aAPC/CHO-K1 cells). The following applies: T-cell; for EC50: PD-1 Jukat T cells + PD-L1 aAPC/CHO-K1 cells, 6 h co-culture, ONE-Glo luciferase readout; for Emax: maximum % Activity relative to atezolizumab (set to 100%). Format: cell-based. How it is done: Experiment 1: Detecting the Inhibitory Activity of Compounds on the PD1/PD-L1 Pathway at the Cellular Level Using the PD1/PD-L1 Blockade Bioassay Method
PD-1 Jukat T cells were revived and cultured with 1640 medium containing 100 μg/mL Hygromycin B, […] Puromycin, 10% FBS and 1% dual antibody; PD-L1 aAPC/CHO-K1 cells were revived and cultured with F12K medium containing 100 μg/mL Hygromycin B, 200 μg/mL G418, 10% FBS and 1% dual antibody.
The revived cells need to be passaged 2-3 times. When the cells enter the exponential growth phase with good growth status, the PD-L1 aAPC/CHO-K1 was digested with trypsin, and the cells were resuspended in F12K containing 5% FBS and adjusted to a density of 5×10^5 cells/mL. 20 μl/well were plated in a 384-well plate (10,000 cells/well) and incubated in an incubator overnight for 16-20 h.
a Preparation of compound stock solution: Dissolve the compound to be tested in DMSO to prepare a 20 mM stock solution.
b Compound gradient dilution: dilute the compound in 1640 medium containing 5% FBS without antibiotics or phenol red, and make 3-fold gradient dilutions to prepare 10 concentration gradients (2×).
c Adding drugs: Take out the cell culture plate, discard the supernatant, add 20 μl/well of the prepared compound, and incubate in the incubator for 1.5 h.
PD-1 Jukat T cells were collected, washed once with PBS, and resuspended in 1640 medium containing 5% FBS without antibiotics or phenol red. The density was adjusted to 1×10^6 cells/mL. 20 μl PD-1 Jukat T cells (20,000 cells/well) were added to each well and incubated in the incubator for 6 h.
ONE-Glo™ Luciferase Assay reagent was thawed to room temperature in advance and then added to a 384-well plate at 40 µl/well. Incubate in the dark for 15 minutes and read the […] signal on a plate reader.
[formula] • Among them, % Activity: % Activity • RLU: Resulting Luminescence unit • RLUvehicle: Average RLU value of negative control wells on each plate • RLUpositive: Average RLU value of positive control wells on each plate • Vehicle control: DMSO (0.1%) corresponding to the test value was used as negative control (its % Activity was 0%); • Positive control: The highest detection value at the atezolizumab administration concentration was used as the positive control (its % Activity was 100%). • (2) EC50 value calculation method: The EC50 value was obtained by the nonlinear fitting formula of Graph Pad Prism 8.0 software. The calculation formula is as follows:
Y=Bottom+(Top−Bottom)/(1+10^((Log EC50−X)×HillSlope)) • X: log of activator concentration (logarithm of compound concentration); Y: % Activity • (3) Emax definition: The maximum % Activity value corresponding to the maximum activation value of the compound relative to atezolizumab (the activation value is set to 100%).
(Reporter assays use an easily measured gene product as a stand-in for the process of interest.)

The nature of data set [2]: Pharmacokinetics experiment in SD rats. Format: in vivo. The following applies: male SD rats; for AUC(0-t) / Cmax / half-life / clearance / Vd: rat, plasma; for Vd: read-out: Vss. How it is done: Experiment 2: Pharmacokinetics Experiment
1) Preparation of the compound solutions of Example 1 and Example 17: The test compound was prepared into a solution using 10% dimethyl sulfoxide, 10% Kolliphor HS15 and 80% physiological saline; Preparation of the compound solution of Example 11: The compound to be tested is prepared into a solution with 5% dimethyl sulfoxide, 5% Kolliphor HS15 and 90% saline for oral administration or intravenous injection.
2) Male SD rats weighing 250-345 g were randomly divided into two groups. One group was intravenously injected with the test compound at a dose of 1.0 mg/kg, and the other group was orally administered with the test compound at a dose of 5.0 mg/kg. Blood was collected at 0.083, 0.25, 0.5, 1, 2, 5, 7 and 24 hours after administration.
3) A standard curve of an appropriate range was established according to the sample concentration, and the concentration of the test compound in the plasma sample was determined in the MRM mode using an AB SCIEX Q TRAP 4000 LC-MS/MS. The pharmacokinetic parameters were calculated using the non-compartmental model method using WinNonLin 6.3 software.

One may read the EC50 as the concentration giving half of the maximal effect. By Emax is commonly meant the maximal effect, on the per cent scale that the assay sets. Broadly, the AUC(0-t) is the area under the concentration-time curve up to a stated or last time point. A higher AUC(0-t) goes with more exposure. A word on the Cmax: it is the peak of the concentration-time curve. Broadly, the half-life is the time in which the quantity being followed falls by half. One may read the clearance as the rate of elimination divided by the concentration. The low end stands for a low capacity for elimination, the high end for a high capacity for elimination. Regarding `COc1nc(-c2cccc(-c3cccc(Nc4nc(C(F)F)nc5cc(CN6CC[C@@H](O)C6)cnc45)c3C)c2Cl)ccc1CN(C)[C@H]1CC[C@H](C(=O)O)CC1` [Example 1, (1r,4r)-4-(((6-(2-chloro-3′-((2-(difluoromethyl)-7-(((R)-3-hydroxypyrrolidin-1-yl)methyl)pyrido[3,2-d]pyrimidin-4-yl)amino)-2′-methyl-[1,1′-biphenyl]-3-yl)-2-methoxypyridin-3-yl)methyl)(methyl)amino)cyclohexane-1-carboxylic acid], in data set [1], the EC50 is 44 nM and the maximal effect (Emax) is 98.2%. Besides, in data set [2] (ig (oral), 5 mg/kg), the F is 32%, the AUC(0-t) was found to be 12300 ng·h/mL, the Cmax amounted to 935 ng/mL and the half-life is 4.9 h. Further, in data set [2] (iv, 1 mg/kg), the exposure AUC(0-t) worked out at 7710 ng·h/mL, the concentration peaked (Cmax) at 877 ng/mL, the clearance was found to be 2.1 mL/min/kg and the half-life was 5.4 h. Also, in data set [2] (iv, 1 mg/kg), the Vd is 0.82 L/kg.

As to `COc1nc(-c2cccc(-c3cccc(Nc4nc(C(F)F)nc5cc(CN6CC[C@@H](O)C6)cnc45)c3C)c2Cl)ccc1CN(C)C[C@H]1CC[C@H](C(=O)O)CC1` [Example 17, (1r,4r)-4-((((6-(2-chloro-3′-((2-(difluoromethyl)-7-(((R)-3-hydroxypyrrolidin-1-yl)methyl)pyrido[3,2-d]pyrimidin-4-yl)amino)-2′-methyl-[1,1′-biphenyl]-3-yl)-2-methoxypyridin-3-yl)methyl)(methyl)amino)methyl)cyclohexane-1-carboxylic acid], in data set [1], the half-maximal effective concentration (EC50) is 109 nM and the maximal effect (Emax) amounted to 94.1%. In data set [2] (ig (oral), 5 mg/kg), this compound yielded an F of 55%, an exposure AUC(0-t) of 27000 ng·h/mL and a maximum concentration (Cmax) of 1980 ng/mL. Further, in data set [2] (iv, 1 mg/kg), the area under the curve AUC(0-t) was 9760 ng·h/mL, the peak concentration (Cmax) was found to be 675 ng/mL, the clearance came out at 1.6 mL/min/kg and the half-life was 7.5 h. For the same compound, the Vd in data set [2] (iv, 1 mg/kg) was 0.95 L/kg.

`COc1nc(-c2cccc(-c3cccc(Nc4nc(C(F)F)nc5cc(CN6CC[C@@H](O)C6)cnc45)c3C)c2Cl)cnc1CN(C)[C@H]1CC[C@H](C(=O)O)CC1` [Example 11, (1r,4r)-4-(((5-(2-chloro-3′-((2-(difluoromethyl)-7-(((R)-3-hydroxypyrrolidin-1-yl)methyl)pyrido[3,2-d]pyrimidin-4-yl)amino)-2′-methyl-[1,1′-biphenyl]-3-yl)-3-methoxypyrazin-2-yl)methyl)(methyl)amino)cyclohexane-1-carboxylic acid]: in data set [1], the EC50 was 20.4 nM and the Emax was 98.5%. In data set [2] (ig (oral), 5 mg/kg), this compound had an F of 52.9%, an exposure AUC(0-t) of 16700 ng·h/mL, a Cmax of 1630 ng/mL and a half-life of 4.3 h. In data set [2] (iv, 1 mg/kg), this compound showed an AUC(0-t) of 6370 ng·h/mL, a Cmax of 1100 ng/mL, a clearance of 2.6 mL/min/kg and a half-life of 3.9 h. For the same compound, the Vd in data set [2] (iv, 1 mg/kg) is 0.75 L/kg.

In data set [2] (ig (oral), 5 mg/kg), `[2H]C([2H])([2H])N(Cc1ncc(-c2cccc(-c3cccc(Nc4nc(C(F)F)nc5cc(CN6CC[C@@H](O)C6)cnc45)c3C)c2Cl)cc1OC)C[C@H]1CC[C@H](C(=O)O)CC1` [Example 38, (1r,4r)-4-((((5-(2-chloro-3′-((2-(difluoromethyl)-7-(((R)-3-hydroxypyrrolidin-1-yl)methyl)pyrido[3,2-d]pyrimidin-4-yl)amino)-2′-methyl-[1,1′-biphenyl]-3-yl)-3-methoxypyridin-2-yl)methyl)(methyl-d3)amino)methyl)cyclohexane-1-carboxylic acid] had an F of 57.8%, an AUC(0-t) of 25900 ng·h/mL, a Cmax of 1850 ng/mL and a half-life of 6.1 h. In data set [2] (iv, 1 mg/kg), this compound gave an AUC(0-t) of 8890 ng·h/mL, a Cmax of 621 ng/mL, a clearance of 1.7 mL/min/kg and a half-life of 6.6 h. For the same compound, in data set [2] (iv, 1 mg/kg), the Vd is 0.91 L/kg.

In the case of `COc1nc(-c2cccc(-c3cccc(Nc4nc(C(F)F)nc5cc(CN6CC[C@@H](O)C6)cnc45)c3C)c2Cl)ccc1CN1CCC(C(=O)O)CC1` [Example 40, (R)-1-((6-(2-chloro-3′-((2-(difluoromethyl)-7-((3-hydroxypyrrolidin-1-yl)methyl)pyrido[3,2-d]pyrimidin-4-yl)amino)-2′-methyl-[1,1′-biphenyl]-3-yl)-2-methoxypyridin-3-yl)methyl)piperidine-4-carboxylic acid], in data set [1], the concentration giving a half-maximal response (EC50) came out at 57.7 nM and the Emax is 121%. In data set [2] (ig (oral), 5 mg/kg), this compound showed an F of 23%, an area under the curve AUC(0-t) of 15100 ng·h/mL, a maximum concentration (Cmax) of 1260 ng/mL and a half-life of 4.1 h. In data set [2] (iv, 1 mg/kg), this compound had an AUC(0-t) of 12900 ng·h/mL, a Cmax of 1870 ng/mL, a clearance of 1.3 mL/min/kg and a half-life of 4.5 h. Further, the Vd in data set [2] (iv, 1 mg/kg) was 0.43 L/kg.

Take `COc1nc(-c2cccc(-c3cccc(Nc4nc(C(F)F)nc5cc(CN6CC[C@@](C)(O)C6)cnc45)c3C)c2Cl)cnc1CN(C)[C@H]1CC[C@H](C(=O)O)CC1` [Example 29, (1r,4r)-4-(((5-(2-chloro-3′-((2-(difluoromethyl)-7-(((R)-3-hydroxy-3-methylpyrrolidin-1-yl)methyl)pyrido[3,2-d]pyrimidin-4-yl)amino)-2′-methyl-[1,1′-biphenyl]-3-yl)-3-methoxypyrazin-2-yl)methyl)(methyl)amino)cyclohexane-1-carboxylic acid]: in data set [1], the EC50 turned out to be 42.9 nM and the Emax turned out to be 89%.
